Here are results for 9 compounds from US20250051283A1, “THERAPEUTIC COMPOUNDS AND METHODS” (priority 2023, published 2025).

“And” between values parts separate entries of the source, which are not always exact repeats. Identical values can stand only once.

By IC50 is commonly meant the concentration needed to halve the response being measured. A word on the CC50: it is the concentration that lowers cell viability or growth by half. Read a low CC50 as greater toxicity to the cells.

Series [1] deals with EV-D68 US/MO/14-18947. Nature of the series: CPE assay (neutral red) with EV-D68 US/MO/14-18947 in R.D. cells. Format: cell-based, Enterovirus D68. The protocol: (§1) Cell lines and viruses. Human rhabdomyosarcoma (R.D., ATCC, CCL-136) cells were maintained at 37° C. in a 5% CO2 atmosphere and cultured in Dulbecco's modified Eagle's medium (DMEM) supplemented with 10% fetal bovine serum (FBS) and 1% penicillin-streptomycin antibiotics. The following reagents were obtained through BEI Resources, NIAID, NIH: Human Enterovirus D68, US/MO/14-18949, NR-49130; Enterovirus D68, US/MO/14-18947, NR-49129; Enterovirus D68, US/IL/14-18952, NR-49131; Enterovirus D68, US/KY/14-18953, NR-49132; Enterovirus D68, US/IL/14-18956, NR-49133.
(§2) Antiviral assays. Cells for antiviral assays were seeded and grown overnight at 37° C. in a 5% CO2 atmosphere for ˜90% confluency the next day. For all infections, cells were washed with PBS containing magnesium and calcium and infected with virus diluted in DMEM with 2% FBS and 30 mM MgCl2. Viruses were incubated for at least 1 h at 33° C. in a 5% CO2 atmosphere, followed by the addition of compound as well as 1% penicillin-streptomycin. For CC50 measurements, the experiment was performed similarly but excluded viral infection. For cytopathic effect (CPE) assays, cells were stained with 66 µg/mL neutral red for 2 h and neutral red uptake was measured at absorbance 540 nm using a Multiskan FC Microplate Photometer (ThermoFisher Scientific). The EC50 and CC50 values were calculated from best-fit dose response curves using GraphPad Prism. For plaque reduction assays, an 1.2% avicel microcrystalline cellulose (FMC BioPolymer, Philadelphia, PA) overlay was used and cells were stained after 3 days as previously described^26.

A further series addresses EV-D68 2A^pro (Enterovirus D68, UniProt A0A097BW19). The series is described as follows: FRET-based enzymatic assay of EV-D68 2Apro inhibition. Format: biochemical. The conditions noted are these: for IC50: read-out: Enzymatic inhibitory activity IC50. Here is the method: (§3) Protein expression and purification. EV-D68 2A^pro gene from strain US/KY/14-18953 was ordered from Genscript (Piscataway, NJ) in pET28b(+) vector with E. coli codon optimization. 2A^pro gene was subcloned into pE-SUMOstar vector according to the manufacturers protocol. Plasmid encoding WT-2A^pro was transformed into BL21(DE3) competent E. coli cells, and a single colony was picked and used to inoculate 10 mL of L.B. grown supplemented with 50 μg/mL kanamycin at 37° C. at 250 rpm. The 10 mL inoculant was added to 1 L of L.B. with 50 μg/mL kanamycin and grown to an OD600 of 0.8-1.0, cooled to 18° C., then induced using 0.5 mM IPTG. Induced cultures were incubated at 18° C. for an additional 24 h, then harvested and resuspended in lysis buffer (25 mM Tris (pH 7.5); 750 mM NaCl, 2 mM DTT with 0.5 mg/mL lysozyme, 0.5 mM PMSF and 0.02 mg/mL DNase I) and lysed with alternating sonication and French press cycles. The cell debris were removed by centrifugation at 12,000×g for 45 min […]. The supernatant was incubated with Ni-NTA resin for over 2 h at 4° C. on a rotator. The Ni-NTA resin was thoroughly washed with 50 mM imidazole in wash buffer (50 mM Tris (pH 7.5), 150 mM NaCl, and 2 mM DTT); for the SUMO-tagged protein, the protein was directly eluted with 300 mM imidazole; for the nontagged 2A^pro Ni-NTA resin was treated with SUMO Protease 1 to remove the SUMO tag, then 2A^pro was washed off from the column with 10 mM imidazole in wash buffer. The imidazole was removed via dialysis or 10 K molecular weight cut-off centrifugal concentrator spin column. The purity of the protein was confirmed with SDS-PAGE. The protein concentration was determined by classic BCA assay using bovine serum albumin as a standard. EV-D68 3C^pro in pET28b(+) vector was expressed as previously described^10.
(§4) Peptide synthesis. The FRET substrate of EV-D68 2A^pro, Dabcyl-KIRIVNT/GPGFGGE-Edans, was synthesized using the Fmoc solid phase synthesis strategy.
(§5) Enzymatic assays. The reaction buffer contains 50 mM Tris (pH7.0), 150 mM NaCl, 10% Glycerol, and 2 mM DTT, and the reaction was carried out at 30° C. in Cytation 5 imaging reader (Fisher Scientific) with EX360/40-EM460/40 filter. Reactions were monitored every 90 sec. […] The reaction was initiated by adding 20 μM of FRET substrate, and the reaction was monitored for 2 hours and initial velocity was calculated for the first 30 minutes via linear regression.

Series [2] addresses T1, EV-D68 2A^pro (WT-2A^pro, strain US/KY/14-18953, expressed in E. coli BL21(DE3) from pE-SUMOstar vector) (enterovirus D68, UniProt A0A097BW19).
T1 construct: E. coli-codon-optimised gene, pE-SUMOstar, His-SUMO tag (removed with SUMO protease for nontagged form), E. coli BL21(DE3), Ni-NTA; 7JRE is the C107A mutant
Nature of the series: FRET-based enzymatic assay of EV-D68 2A^pro inhibition (FRET substrate Dabcyl-KIRIVNT/GPGFGGE-Edans). Format: biochemical. The protocol:
FIG. 4. […] Key structural variations compared to telaprevir were highlighted in red. Enzymatic inhibitory activity IC50 value was determined in the FRET-based assay. Antiviral EC50 value was determined in the CPE assay with EV-D68 US/MO/14-18947 in R.D. cells. Cytotoxicity CC50 value was determined using the neutral red uptake method in R.D. cells. The results are the mean±standard deviation of two independent experiments with three repeats in each experiment.
FIG. 5. […] Key structural variations compared to Jun8861 were highlighted in red. Enzymatic inhibitory activity IC50 value was determined in the FRET-based assay. Antiviral EC50 value was determined in the CPE assay with EV-D68 US/MO/14-18947 in R.D. cells. Cytotoxicity CC50 value was determined using the neutral red uptake method in R.D. cells. The results are the mean±standard deviation of two independent experiments with three repeats in each experiment.
as §3, §4, §5

For a further series, the system named is R.D. cells. Nature of the series: Cytotoxicity by neutral red uptake in R.D. cells, no viral infection. Format: cell-based, Human. Here is the method:
as §1, §2

Experiment in series [3]: as above
The conditions noted are these: human, R.D. (rhabdomyosarcoma, ATCC CCL-136) cells, uninfected. Format: cell-based, Human. Here is the method:
as §1, §2

Series [4] has as its system EV-D68 US/MO/14-18947. The series is described as follows: Secondary plaque reduction assay with EV-D68 US/MO/14-18947. Format: cell-based, Enterovirus D68. Here is the method:
as §1
as §2, with “For CC50 measurements, the experiment was performed similarly but excluded viral infection.” left out, “For plaque reduction assays, an 1.2% avicel microcrystalline cellulose (FMC BioPolymer, Philadelphia, PA) overlay was used and cells were stained after 3 days as previously described^26.” left out
(Plaque reduction counts the foci of infection that form in a cell layer.)

Setting [5] is: Enterovirus D, EVD68, RD, read-out: Antiviral EC50, CPE assay, EV-D68 US/MO/14-18947 in R.D. cells.
Where [6] appears, read: CPE assay, EV-D68 US/MO/14-18947 in R.D. cells.

Consider `CCC[C@H](NC(=O)[C@@H]1[C@H]2CCC[C@H]2CN1C(=O)[C@@H](NC(=O)CC1CCC(F)(F)CC1)C(C)(C)C)C(=O)C(=O)NC1CC1` [Jun975, (1S,3aR,6aS)—N—((S)-1-(cyclopropylamino)-1,2-dioxohexan-3-yl)-2-((S)-2-(2-(4,4-difluorocyclohexyl)acetamido)-3,3-dimethylbutanoyl)octahydrocyclopenta[c]pyrrole-1-carboxamide], for which, in the series with EV-D68 US/MO/14-18947 [1] (setting [5]), the EC50 lay within 160 to 750 nM. Moreover, the IC50 on EV-D68 2A^pro was 80 to 140 nM; in series [2] it was 140 ± 10 nM.
For the compound `CCC[C@H](NC(=O)[C@@H]1[C@H]2CCC[C@H]2CN1C(=O)[C@@H](NC(=O)OCc1ccccc1)C(C)(C)C)C(=O)C(=O)NC1CC1` [Jun7426, Benzyl ((S)-1-((1S,3aR,6aS)-1-(((S)-1-(cyclopropylamino)-1,2-dioxohexan-3-yl)carbamoyl)hexahydrocyclopenta[c]pyrrol-2(1H)-yl)-3,3-dimethyl-1-oxobutan-2-yl)carbamate], in the series on EV-D68 US/MO/14-18947 [1] (setting [6]), the “antiviral activity, in words, relative to the named comparator” value is “reduced enzymatic inhibition and antiviral activity compared to telaprevir”. In addition, the “enzymatic inhibition, in words, relative to the named comparator” value on EV-D68 2A^pro was “reduced enzymatic inhibition and antiviral activity compared to telaprevir”. Further, the IC50 in series [2] is 760 ± 100 nM.
With `CCC[C@H](NC(=O)[C@@H]1[C@H]2CCC[C@H]2CN1C(=O)[C@@H](NC(=O)Cc1ccccc1)C(C)(C)C)C(=O)C(=O)NC1CC1` [Jun8681, (1S,3aR,6aS)—N—((S)-1-(cyclopropylamino)-1,2-dioxohexan-3-yl)-2-((S)-3,3-dimethyl-2-(2-phenylacetamido)butanoyl)octahydrocyclopenta[c]pyrrole-1-carboxamide], the “antiviral activity, in words, relative to the named comparator” value with EV-D68 US/MO/14-18947 [1] (setting [6]) was “reduced enzymatic inhibition and antiviral activity compared to telaprevir”. Also, the “enzymatic inhibition, in words, relative to the named comparator” value on EV-D68 2A^pro is “reduced enzymatic inhibition and antiviral activity compared to telaprevir”. The same compound showed an IC50 in series [2] of 250 ± 20 nM.
In the case of `CCC[C@H](NC(=O)[C@@H]1[C@H]2CCC[C@H]2CN1C(=O)[C@@H](NC(=O)C=Cc1ccccc1)C(C)(C)C)C(=O)C(=O)NC1CC1` [Jun8813, (1S,3aR,6aS)-2-((S)-2-cinnamamido-3,3-dimethylbutanoyl)-N—((S)-1-(cyclopropylamino)-1,2-dioxohexan-3-yl)octahydrocyclopenta[c]pyrrole-1-carboxamide], in the series on EV-D68 US/MO/14-18947 [1] (setting [6]), the “antiviral activity, in words, relative to the named comparator” value was “reduced enzymatic inhibition and antiviral activity compared to telaprevir”. For the same compound, on EV-D68 2A^pro, the “enzymatic inhibition, in words, relative to the named comparator” value was “reduced enzymatic inhibition and antiviral activity compared to telaprevir”. Further, in series [2], the IC50 came out at 760 ± 320 nM.
With `CCC[C@H](NC(=O)[C@@H]1[C@H]2CCC[C@H]2CN1C(=O)[C@@H](NC(=O)CC1CCCCC1)C(C)(C)C)C(=O)C(=O)NC1CC1` [Jun8814, (1S,3aR,6aS)-2-((S)-2-(2-cyclohexylacetamido)-3,3-dimethylbutanoyl)-N—((S)-1-(cyclopropylamino)-1,2-dioxohexan-3-yl)octahydrocyclopenta[c]pyrrole-1-carboxamide], the EC50 in the series with EV-D68 US/MO/14-18947 [1] (setting [5]) is 160 to 750 nM. The IC50 on EV-D68 2A^pro was 80 to 140 nM; in series [2], 90 ± 10 nM.
In the case of `CCC[C@H](NC(=O)[C@@H]1[C@H]2CCC[C@H]2CN1C(=O)[C@@H](NC(=O)CC12CC3CC(CC(C3)C1)C2)C(C)(C)C)C(=O)C(=O)NC1CC1` [Jun8861], the EC50 in the series on EV-D68 US/MO/14-18947 [1] (setting [5]) is 160 to 750 nM; with EV-D68 US/MO/14-18947 [1] (read-out: Antiviral EC50, CPE assay, EV-D68 US/MO/14-18947 in R.D. cells), 160 nM. In the series with R.D. cells, the CC50 was 36200 nM. Besides, the IC50 at EV-D68 2A^pro is 80 to 140 nM and 80 nM.
As to `CC(C)(C)C(NC(=O)CC12CC3CC(CC(C3)C1)C2)C(=O)N1CC2CCCC2C1C(=O)NC(Cc1ccccc1)C(=O)C(=O)NC1CC1` [Jun11385, (1S,3aR,6aS)-2-((S)-2-(2-((3S,5S,7S)-adamantan-1-yl)acetamido)-3,3-dimethylbutanoyl)-N—((S)-4-(cyclopropylamino)-3,4-dioxo-1-phenylbutan-2-yl)octahydrocyclopenta[c]pyrrole-1-carboxamide], in series [3], it took 17400 nM to reach half-maximal cytotoxicity (CC50).
As for `CCC(C)[C@H](NC(=O)[C@@H]1[C@H]2CCC[C@H]2CN1C(=O)[C@@H](NC(=O)CC12CC3CC(CC(C3)C1)C2)C(C)(C)C)C(=O)C(=O)NC1CC1` (stereo partly drawn) [Jun11756, (1S,3aR,6aS)-2-((S)-2-(2-((3S,5S,7S)-adamantan-1-yl)acetamido)-3,3-dimethylbutanoyl)-N-((3S,4S)-1-(cyclopropylamino)-4-methyl-1,2-dioxohexan-3-yl)octahydrocyclopenta[c]pyrrole-1-carboxamide], the “antiviral activity, in words, relative to the named comparator” value with EV-D68 US/MO/14-18947 [1] (setting [6]) is “comparable enzymatic inhibition and antiviral activity as Jun8861”. In addition, the “enzymatic inhibition, in words, relative to the named comparator” value at EV-D68 2A^pro is “comparable enzymatic inhibition and antiviral activity as Jun8861”. In addition, the EC50 in the series on EV-D68 US/MO/14-18947 [4] was determined as 13.5 nM.
As for `CC(C)(C)[C@H](NC(=O)CC12CC3CC(CC(C3)C1)C2)C(=O)N1C[C@@H]2CCC[C@@H]2[C@H]1C(=O)N[C@H](C(=O)C(=O)NC1CC1)C1CCCC1` [Jun11808, (1S,3aR,6aS)-2-((S)-2-(2-((3S,5S,7S)-adamantan-1-yl)acetamido)-3,3-dimethylbutanoyl)-N—((S)-1-cyclopentyl-3-(cyclopropylamino)-2,3-dioxopropyl)octahydrocyclopenta[c]pyrrole-1-carboxamide], the “antiviral activity, in words, relative to the named comparator” value with EV-D68 US/MO/14-18947 [1] (setting [6]) was “comparable enzymatic inhibition and antiviral activity as Jun8861”. For the same compound, on EV-D68 2A^pro, the “enzymatic inhibition, in words, relative to the named comparator” value is “comparable enzymatic inhibition and antiviral activity as Jun8861”. The same compound yielded an IC50 in series [2] of 200 ± 70 nM.
